Reference: ChEMBL document CHEMBL1201862, “PubChem BioAssay data set” (2004)
Active and inactive are the calls of the source.

How the values were obtained:
[1] = molecular target: Cytochrome P450 2D6 (Homo sapiens, UniProt P10635);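 further: CYP2D6 member of a cytochrome P450 panel assay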
[2] = molecular target: Cytochrome P450 2C9 (Homo sapiens, UniProt P11712)
[3] = NIH3T3 cell viability loss – ATP luminescence, mouse fibroblasts, counter-screen, dose response (AID 2010); type: functional, cell-based;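 further: cells exposed to compound for about 90 hours before reading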
[4] = test system: HEK293; experiment: EBV LMP1 TES2 canonical NF-kB signalling blockers – cell-based, HEK293, luciferase, cherry-pick, dose response (AID 588343); type: functional; conditions: Homo sapiens
[5] = Trypanosoma cruzi growth suppression in host cells – NIH3T3 host cells, beta-gal luminescence, confirmation (AID 2044); type: functional, cell-based;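 further: intracellular parasites grown in NIH/3T3 mouse fibroblasts as host cells; luminescent beta-galactosidase reporter signal from transgenic T. cruzi replicating inside host cells; inhibitors lower the luminescence signal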
[6] = test system: INS1; experiment: INS-1E survival protection against cytokine death – cell-based, luminescence, retest, dose response (AID 449756); type: functional; conditions: Rattus norvegicus;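 further: cell death triggered by IL-1 beta plus TNF-alpha plus IFN-gamma mixture; protective hits raise ATP signal compared with cytokine alone wells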
[7] = test system: H9c2; experiment: cells; type: functional, cell-based; conditions: Rattus norvegicus, H9c2, Myocardium;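 further: confirmatory concentration-response retest of ultra-high-throughput screening hits for modulation of myocardial damage; cell death induced by hydrogen peroxide oxidative stress; compound pretreatment for 60 min then peroxide exposure for 2 h; potency is for protecting the cells against peroxide damage rather than for killing them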
[8] = Luminescence Cell-Based Dose Retest to Confirm Inhibitors of Cancer Stem Cells. [Related pubchem assays (depositor defined):AID2717, AID2721]; type: functional; conditions: Homo sapiens
[9] = test system: Vero; experiment: cells; type: functional; conditions: Chlorocebus sabaeus
[10] = molecular target: Cytochrome P450 3A4 (Homo sapiens, UniProt P08684);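 further: CYP3A4 tested as one member of a cytochrome P450 panel screen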
[11] = test system: Streptococcus sp. 'group A'; experiment: Streptococcus pyogenes SK(-)GAS viability under kanamycin – luminescence, BacTiterGlo, confirmation, counter-screen for streptokinase expression inhibitor project, dose response (AID 1900); type: functional, organism-based
[12] = test system: H4; experiment: Luminescence Cell-Based Dose Response HTS to Identify Activators of 5'UTR Stem-Loop Driven Prion Protein mRNA Translation in H4 Neuroglioblastoma Cells. [Related pubchem assays: 1829 (Project Summary), 1814 (Primary HTS)]; type: functional; conditions: Homo sapiens
[13] = molecular target: T1, Sentrin-specific protease 7 (Homo sapiens, UniProt Q9BQF6); type: functional;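 further: Luminescence-based dose-response confirmation of ultra-high-throughput screening hits, measuring inhibition of SENP7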
T1 sequence (Q9BQF6 whole entry): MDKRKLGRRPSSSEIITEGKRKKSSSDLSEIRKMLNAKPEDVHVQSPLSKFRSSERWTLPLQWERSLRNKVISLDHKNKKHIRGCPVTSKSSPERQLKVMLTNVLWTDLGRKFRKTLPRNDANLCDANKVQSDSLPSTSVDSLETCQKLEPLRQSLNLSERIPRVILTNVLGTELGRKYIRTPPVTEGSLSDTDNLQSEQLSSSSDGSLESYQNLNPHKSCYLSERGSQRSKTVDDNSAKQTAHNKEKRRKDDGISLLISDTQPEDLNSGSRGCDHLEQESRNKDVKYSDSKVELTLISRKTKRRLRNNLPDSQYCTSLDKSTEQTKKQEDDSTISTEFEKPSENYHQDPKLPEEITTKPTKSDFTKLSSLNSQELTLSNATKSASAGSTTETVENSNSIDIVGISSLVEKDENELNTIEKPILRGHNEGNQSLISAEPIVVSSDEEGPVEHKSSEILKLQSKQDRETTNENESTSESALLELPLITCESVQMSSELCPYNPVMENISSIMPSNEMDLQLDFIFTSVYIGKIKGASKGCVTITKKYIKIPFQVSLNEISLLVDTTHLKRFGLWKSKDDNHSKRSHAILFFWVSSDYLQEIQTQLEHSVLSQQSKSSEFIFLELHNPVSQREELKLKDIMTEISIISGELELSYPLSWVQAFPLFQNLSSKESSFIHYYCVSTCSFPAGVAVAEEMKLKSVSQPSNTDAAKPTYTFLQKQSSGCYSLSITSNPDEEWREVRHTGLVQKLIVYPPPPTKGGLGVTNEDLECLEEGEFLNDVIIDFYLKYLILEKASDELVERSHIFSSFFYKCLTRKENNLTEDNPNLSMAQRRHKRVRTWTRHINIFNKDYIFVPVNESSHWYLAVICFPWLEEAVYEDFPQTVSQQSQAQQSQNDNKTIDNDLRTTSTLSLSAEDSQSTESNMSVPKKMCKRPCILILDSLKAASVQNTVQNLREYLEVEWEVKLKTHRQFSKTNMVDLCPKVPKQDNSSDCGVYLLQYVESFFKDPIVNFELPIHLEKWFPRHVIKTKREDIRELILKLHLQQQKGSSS

[14] = Luminescence Cell-Based Dose Response to Identify Activators of 5'UTR Stem-Loop Driven Prion Protein mRNA Translation in H4-C Neuroglioblastoma Cells. [Related pubchem assays: 1829 (Project Summary), 1814 (Primary HTS)]; type: functional
[15] = molecular target: T2, Caspase-3 (Homo sapiens, UniProt P42574); type: functional;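 further: Dose-response selectivity test against caspase-3 for candidate inhibitors of sentrin-specific proteases (SENPs)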
T2 sequence (P42574 whole entry): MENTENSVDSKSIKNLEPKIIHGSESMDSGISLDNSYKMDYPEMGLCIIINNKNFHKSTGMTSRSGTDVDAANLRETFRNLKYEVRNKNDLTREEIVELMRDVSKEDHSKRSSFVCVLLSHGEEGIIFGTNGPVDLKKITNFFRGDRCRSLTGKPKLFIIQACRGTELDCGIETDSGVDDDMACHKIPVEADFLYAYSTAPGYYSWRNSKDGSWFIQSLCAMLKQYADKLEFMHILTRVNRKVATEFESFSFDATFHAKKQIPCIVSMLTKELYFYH

[16] = molecular target: T3, Fatty acid synthase (Homo sapiens, UniProt P49327); experiment: inhibition of human FAS-TE enzyme activity – biochemical, endpoint fluorescence intensity, uHTS hits, dose response (AID 624327); type: functional;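 further: fluorescence from hydrolysis of an O-methyl fluorescein acyl ester substrate by the enzyme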
[17] = test system: Streptococcus; experiment: GAS UMAA2166 growth inhibition – luminescence, BacTiterGlo, counter-screen for streptokinase expression inhibitor project, dose response (AID 1915); type: functional, organism-based;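 further: potency for reduction of bacterial viability or growth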
[18] = molecular target: T4, Sentrin-specific protease 8 (Homo sapiens, UniProt Q96LD8); type: functional;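 further: luminescence read-out of SENP8 inhibition, dose-response confirmation following an ultra-high-throughput screen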
T4 sequence (Q96LD8 whole entry): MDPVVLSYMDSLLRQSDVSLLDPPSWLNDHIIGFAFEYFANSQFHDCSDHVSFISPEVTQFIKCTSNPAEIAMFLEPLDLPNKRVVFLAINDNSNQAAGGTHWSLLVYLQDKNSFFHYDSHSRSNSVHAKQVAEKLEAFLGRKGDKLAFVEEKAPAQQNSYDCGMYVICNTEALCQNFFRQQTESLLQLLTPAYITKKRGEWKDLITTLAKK

[19] = Luminescence Cell-Based Dose Confirmation to Identify Activators of 5'UTR Stem-Loop Driven Alpha-Synuclein mRNA Translation in H4 Neuroglioblastoma Cells. [Related pubchem assays: 1829 (Project Summary), 1814 (Primary HTS)]; type: functional
[20] = Luminescence Cell-Based Dose Response to Identify Activators of Luciferase Translation or Activity in H4-C Neuroglioblastoma Cells. [Related pubchem assays: 1829 (Project Summary), 1814 (Primary HTS)]; type: functional
[21] = molecular target: T5, Sentrin-specific protease 6 (Homo sapiens, UniProt Q9GZR1); type: functional;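 further: Luminescence-based dose-response confirmatory assay of SENP6 inhibition, following up an ultra-high-throughput screen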
T5 sequence (Q9GZR1 whole entry): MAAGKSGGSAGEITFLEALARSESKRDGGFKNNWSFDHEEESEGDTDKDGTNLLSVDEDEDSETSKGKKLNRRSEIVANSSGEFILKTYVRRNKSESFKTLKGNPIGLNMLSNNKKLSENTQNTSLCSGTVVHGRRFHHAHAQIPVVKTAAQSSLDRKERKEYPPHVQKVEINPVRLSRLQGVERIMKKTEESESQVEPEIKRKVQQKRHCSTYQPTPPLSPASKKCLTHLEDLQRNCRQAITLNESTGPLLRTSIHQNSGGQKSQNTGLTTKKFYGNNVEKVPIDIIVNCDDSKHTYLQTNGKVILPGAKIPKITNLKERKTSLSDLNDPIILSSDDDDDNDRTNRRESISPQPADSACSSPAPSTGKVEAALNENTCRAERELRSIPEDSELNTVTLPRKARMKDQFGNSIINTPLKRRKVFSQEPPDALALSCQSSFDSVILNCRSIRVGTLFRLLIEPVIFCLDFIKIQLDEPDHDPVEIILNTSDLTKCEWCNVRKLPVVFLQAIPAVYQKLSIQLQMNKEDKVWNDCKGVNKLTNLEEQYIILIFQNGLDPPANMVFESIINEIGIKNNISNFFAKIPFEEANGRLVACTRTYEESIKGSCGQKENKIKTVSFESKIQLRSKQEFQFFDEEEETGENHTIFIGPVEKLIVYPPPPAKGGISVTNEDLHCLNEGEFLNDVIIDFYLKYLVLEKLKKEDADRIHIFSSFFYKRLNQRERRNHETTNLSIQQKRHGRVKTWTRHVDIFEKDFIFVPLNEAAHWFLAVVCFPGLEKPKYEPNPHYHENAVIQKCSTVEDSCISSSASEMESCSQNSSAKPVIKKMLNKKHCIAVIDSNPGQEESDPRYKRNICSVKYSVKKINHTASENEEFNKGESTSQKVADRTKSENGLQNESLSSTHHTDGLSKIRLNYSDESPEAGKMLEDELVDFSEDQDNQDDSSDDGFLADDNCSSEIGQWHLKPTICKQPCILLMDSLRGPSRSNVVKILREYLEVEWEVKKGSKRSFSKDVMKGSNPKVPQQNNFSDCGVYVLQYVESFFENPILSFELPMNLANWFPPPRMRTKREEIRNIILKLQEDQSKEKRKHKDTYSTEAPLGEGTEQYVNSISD

[22] = molecular target: T3, Fatty acid synthase; experiment: inhibition of human FAS-TE enzyme activity – biochemical, kinetic fluorescence intensity, dose response (AID 624326); type: functional;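 further: rate of fluorescence rise from hydrolysis of a fluorogenic O-methyl fluorescein ester substrate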
[23] = molecular target: Induced myeloid leukemia cell differentiation protein Mcl-1 (Homo sapiens, UniProt Q07820); type: functional
[24] = molecular target: T6, Cytochrome P450 1A2 (Homo sapiens, UniProt P05177);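 further: PubChem cytochrome P450 panel assay, CYP1A2 panel member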
T6 sequence (P05177 whole entry): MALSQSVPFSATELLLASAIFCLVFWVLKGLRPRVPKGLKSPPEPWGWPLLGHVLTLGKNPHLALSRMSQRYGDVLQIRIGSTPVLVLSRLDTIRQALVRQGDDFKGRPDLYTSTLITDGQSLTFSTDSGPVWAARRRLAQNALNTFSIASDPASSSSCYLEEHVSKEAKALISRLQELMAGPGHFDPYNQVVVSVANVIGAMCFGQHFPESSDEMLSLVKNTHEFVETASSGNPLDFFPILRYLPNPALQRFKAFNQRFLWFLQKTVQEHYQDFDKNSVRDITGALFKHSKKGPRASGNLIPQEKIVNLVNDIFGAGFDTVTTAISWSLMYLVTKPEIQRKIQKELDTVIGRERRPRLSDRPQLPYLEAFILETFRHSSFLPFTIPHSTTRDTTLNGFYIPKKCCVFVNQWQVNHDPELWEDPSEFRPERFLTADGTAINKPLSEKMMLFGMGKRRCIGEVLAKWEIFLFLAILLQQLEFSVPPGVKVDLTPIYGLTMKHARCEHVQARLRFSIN

[25] = molecular target: Cytochrome P450 2C19 (Homo sapiens, UniProt P33261); experiment: Cytochrome panel assay with activity outcomes. Panel member name: p450-cyp2c19 Compounds with AC50 equal or less than 10 uM are considered active; type: functional; conditions: read-out: AC50
Chain of Cytochrome P450 2C19 (P33261 whole entry): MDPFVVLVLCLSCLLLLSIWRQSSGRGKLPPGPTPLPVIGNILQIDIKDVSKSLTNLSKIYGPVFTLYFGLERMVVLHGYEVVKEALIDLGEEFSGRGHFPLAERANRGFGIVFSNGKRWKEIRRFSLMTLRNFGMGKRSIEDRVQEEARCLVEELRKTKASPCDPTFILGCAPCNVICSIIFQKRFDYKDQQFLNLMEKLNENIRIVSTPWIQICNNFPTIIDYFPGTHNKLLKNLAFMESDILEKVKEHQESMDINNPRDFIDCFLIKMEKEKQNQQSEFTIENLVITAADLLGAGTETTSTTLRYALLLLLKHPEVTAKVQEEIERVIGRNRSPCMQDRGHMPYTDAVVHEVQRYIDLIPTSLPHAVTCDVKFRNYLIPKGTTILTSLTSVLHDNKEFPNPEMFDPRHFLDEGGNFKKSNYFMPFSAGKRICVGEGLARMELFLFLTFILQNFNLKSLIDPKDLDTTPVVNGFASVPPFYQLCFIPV

Chain of Cytochrome P450 2C9 (P11712 whole entry): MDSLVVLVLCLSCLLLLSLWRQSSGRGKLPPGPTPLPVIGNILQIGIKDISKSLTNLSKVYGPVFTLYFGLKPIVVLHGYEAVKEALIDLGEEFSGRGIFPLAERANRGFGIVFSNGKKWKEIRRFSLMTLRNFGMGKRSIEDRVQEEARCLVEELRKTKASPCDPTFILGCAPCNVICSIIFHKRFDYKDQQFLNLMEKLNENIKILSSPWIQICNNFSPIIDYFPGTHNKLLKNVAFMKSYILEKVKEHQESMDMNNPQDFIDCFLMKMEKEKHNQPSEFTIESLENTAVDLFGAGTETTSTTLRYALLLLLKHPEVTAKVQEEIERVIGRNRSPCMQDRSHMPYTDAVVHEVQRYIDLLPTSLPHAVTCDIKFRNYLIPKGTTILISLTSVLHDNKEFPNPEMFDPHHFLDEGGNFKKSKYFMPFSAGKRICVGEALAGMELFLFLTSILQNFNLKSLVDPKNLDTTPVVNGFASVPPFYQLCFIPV
T3 sequence (P49327 whole entry): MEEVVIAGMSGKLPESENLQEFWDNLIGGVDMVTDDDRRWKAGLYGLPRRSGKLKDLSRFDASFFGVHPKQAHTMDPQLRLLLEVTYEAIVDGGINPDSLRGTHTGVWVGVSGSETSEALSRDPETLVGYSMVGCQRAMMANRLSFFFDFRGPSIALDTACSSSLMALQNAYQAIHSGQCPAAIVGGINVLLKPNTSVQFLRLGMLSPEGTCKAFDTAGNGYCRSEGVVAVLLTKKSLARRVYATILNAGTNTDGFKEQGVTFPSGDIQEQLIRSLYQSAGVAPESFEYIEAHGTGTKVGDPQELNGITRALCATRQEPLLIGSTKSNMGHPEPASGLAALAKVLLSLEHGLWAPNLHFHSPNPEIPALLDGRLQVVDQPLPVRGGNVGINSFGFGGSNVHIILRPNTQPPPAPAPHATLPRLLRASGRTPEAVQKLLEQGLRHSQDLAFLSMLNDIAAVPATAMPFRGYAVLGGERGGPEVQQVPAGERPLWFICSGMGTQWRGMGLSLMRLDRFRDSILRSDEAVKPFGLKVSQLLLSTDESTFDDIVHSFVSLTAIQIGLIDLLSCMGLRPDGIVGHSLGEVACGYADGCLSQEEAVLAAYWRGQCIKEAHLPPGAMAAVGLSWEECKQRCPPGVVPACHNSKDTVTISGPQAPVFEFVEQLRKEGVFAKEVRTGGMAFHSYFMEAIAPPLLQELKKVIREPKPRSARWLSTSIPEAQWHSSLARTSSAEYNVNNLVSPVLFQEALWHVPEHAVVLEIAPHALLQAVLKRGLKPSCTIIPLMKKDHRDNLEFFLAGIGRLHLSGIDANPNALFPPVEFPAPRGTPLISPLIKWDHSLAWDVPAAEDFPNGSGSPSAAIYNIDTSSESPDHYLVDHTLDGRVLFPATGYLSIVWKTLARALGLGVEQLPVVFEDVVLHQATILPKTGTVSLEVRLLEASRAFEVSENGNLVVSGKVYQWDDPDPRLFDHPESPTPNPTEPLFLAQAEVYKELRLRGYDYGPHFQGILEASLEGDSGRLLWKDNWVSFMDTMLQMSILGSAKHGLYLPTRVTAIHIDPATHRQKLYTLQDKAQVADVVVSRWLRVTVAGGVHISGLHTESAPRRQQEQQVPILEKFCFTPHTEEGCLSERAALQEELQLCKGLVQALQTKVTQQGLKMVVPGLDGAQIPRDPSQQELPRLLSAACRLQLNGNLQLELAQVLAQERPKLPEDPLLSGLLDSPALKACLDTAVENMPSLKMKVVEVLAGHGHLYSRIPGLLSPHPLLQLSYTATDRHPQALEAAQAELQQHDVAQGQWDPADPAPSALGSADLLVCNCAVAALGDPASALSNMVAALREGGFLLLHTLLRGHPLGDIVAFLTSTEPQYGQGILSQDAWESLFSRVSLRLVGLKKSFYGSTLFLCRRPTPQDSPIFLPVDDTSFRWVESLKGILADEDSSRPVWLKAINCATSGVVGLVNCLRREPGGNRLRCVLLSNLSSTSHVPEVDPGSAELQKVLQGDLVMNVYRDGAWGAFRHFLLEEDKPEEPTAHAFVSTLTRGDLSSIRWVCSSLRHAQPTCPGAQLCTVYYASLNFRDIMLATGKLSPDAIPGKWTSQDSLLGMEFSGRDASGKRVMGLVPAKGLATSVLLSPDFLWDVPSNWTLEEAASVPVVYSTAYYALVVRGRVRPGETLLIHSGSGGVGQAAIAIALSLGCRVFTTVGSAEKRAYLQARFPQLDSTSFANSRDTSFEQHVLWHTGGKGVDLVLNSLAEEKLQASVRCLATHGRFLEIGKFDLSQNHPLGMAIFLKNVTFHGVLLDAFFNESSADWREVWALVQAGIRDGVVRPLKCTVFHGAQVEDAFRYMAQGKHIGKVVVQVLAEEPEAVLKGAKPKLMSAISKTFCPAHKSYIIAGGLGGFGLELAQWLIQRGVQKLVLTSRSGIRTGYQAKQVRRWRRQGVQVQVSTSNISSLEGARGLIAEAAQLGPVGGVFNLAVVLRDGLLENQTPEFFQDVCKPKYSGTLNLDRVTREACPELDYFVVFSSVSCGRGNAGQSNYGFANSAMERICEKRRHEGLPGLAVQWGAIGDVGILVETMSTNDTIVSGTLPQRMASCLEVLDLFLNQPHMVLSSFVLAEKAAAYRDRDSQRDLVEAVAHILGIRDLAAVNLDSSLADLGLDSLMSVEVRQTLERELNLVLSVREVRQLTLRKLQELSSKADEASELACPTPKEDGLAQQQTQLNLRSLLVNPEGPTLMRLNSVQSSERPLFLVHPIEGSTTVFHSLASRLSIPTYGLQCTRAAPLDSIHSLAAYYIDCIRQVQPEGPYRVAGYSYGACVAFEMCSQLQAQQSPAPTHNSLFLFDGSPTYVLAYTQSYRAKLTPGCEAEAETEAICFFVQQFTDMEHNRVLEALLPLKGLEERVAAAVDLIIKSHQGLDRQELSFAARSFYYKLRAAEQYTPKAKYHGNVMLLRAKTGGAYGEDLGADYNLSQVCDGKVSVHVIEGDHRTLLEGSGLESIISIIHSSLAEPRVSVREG
Chain of Induced myeloid leukemia cell differentiation protein Mcl-1 (Q07820 whole entry): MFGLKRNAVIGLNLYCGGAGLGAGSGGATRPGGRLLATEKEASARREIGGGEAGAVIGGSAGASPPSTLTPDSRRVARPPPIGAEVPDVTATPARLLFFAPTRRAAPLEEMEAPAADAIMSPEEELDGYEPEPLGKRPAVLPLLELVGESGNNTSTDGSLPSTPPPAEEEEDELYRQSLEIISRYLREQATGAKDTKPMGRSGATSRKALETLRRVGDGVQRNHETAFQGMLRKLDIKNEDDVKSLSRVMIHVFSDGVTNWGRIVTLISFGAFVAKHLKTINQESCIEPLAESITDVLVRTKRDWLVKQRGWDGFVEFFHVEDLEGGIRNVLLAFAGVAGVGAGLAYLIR
Chain of Cytochrome P450 3A4 (P08684 whole entry): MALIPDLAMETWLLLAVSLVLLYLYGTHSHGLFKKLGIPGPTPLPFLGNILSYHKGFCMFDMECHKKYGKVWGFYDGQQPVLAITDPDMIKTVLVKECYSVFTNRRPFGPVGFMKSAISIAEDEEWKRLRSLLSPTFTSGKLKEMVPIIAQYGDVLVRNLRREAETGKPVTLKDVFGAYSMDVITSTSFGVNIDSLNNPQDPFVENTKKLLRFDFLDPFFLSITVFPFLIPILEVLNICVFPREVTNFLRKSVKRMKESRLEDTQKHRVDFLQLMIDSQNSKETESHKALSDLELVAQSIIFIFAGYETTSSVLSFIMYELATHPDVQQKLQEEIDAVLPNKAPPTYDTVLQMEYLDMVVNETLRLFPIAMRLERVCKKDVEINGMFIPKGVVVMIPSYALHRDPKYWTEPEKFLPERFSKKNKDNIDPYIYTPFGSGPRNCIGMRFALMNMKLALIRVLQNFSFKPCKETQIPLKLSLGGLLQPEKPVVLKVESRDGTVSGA
Chain of Cytochrome P450 2D6 (P10635 whole entry): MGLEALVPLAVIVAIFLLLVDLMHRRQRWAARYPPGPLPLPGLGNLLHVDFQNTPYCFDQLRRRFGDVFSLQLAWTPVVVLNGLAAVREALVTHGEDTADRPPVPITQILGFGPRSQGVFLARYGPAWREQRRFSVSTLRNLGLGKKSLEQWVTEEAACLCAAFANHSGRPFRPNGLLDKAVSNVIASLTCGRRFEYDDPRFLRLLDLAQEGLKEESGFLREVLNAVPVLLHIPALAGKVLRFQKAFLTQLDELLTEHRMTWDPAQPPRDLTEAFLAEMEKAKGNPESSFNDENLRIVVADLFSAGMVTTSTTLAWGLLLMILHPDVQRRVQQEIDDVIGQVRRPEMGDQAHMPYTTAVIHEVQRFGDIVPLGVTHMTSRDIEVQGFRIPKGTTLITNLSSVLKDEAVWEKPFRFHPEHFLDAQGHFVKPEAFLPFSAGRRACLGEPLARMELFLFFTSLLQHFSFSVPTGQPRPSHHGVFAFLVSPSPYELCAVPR

For `Cn1c(SCC(=O)N2CCN(S(=O)(=O)c3ccccc3)CC2)nc2ccccc21`, the AC50 [1] was 14.1 µM (inconclusive) and the AC50 [2] was “inconclusive”.
For `Cc1nc2c(-c3ccc(Cl)cc3)c(C)nn2c(O)c1Cc1ccccc1`, the EC50 [3] was 2.97 µM (active), the AC50 [4] was 9.26 µM (active) and the EC50 [5] was 0.938 µM (active). For the same compound, the AC50 [6] was 2.5 µM (active).
With `O=C(CSC1=NNC(c2ccccn2)S1)Nc1cccc(Cl)c1` (centres undefined) the IC50 [7] was > 79 µM (inactive).
For `Cc1cccc(NC(=O)c2[nH]cnc2C(=O)NCCCNC(=O)c2nc[nH]c2C(=O)Nc2cccc(C)c2)c1`, the IC50 [7] was 26.2 µM (active) and the AC50 [8] was 10.6 µM (active).
For `COc1cc2ccnc(C=O)c2cc1OC`, the IC50 [7] was 14.5 µM (active) and the CC50 [9] was > 25 µM (active).
With `CCN(CC)CCOC(=O)c1cc(Cl)c(N)cc1OC` the AC50 [10] was 31.6 µM (inconclusive) and the AC50 [2] was “inconclusive”.
For `O=C(O)c1ccc(N/N=C/c2ccc(-c3cc(Cl)ccc3Cl)o2)cc1`, the EC50 [11] was 2.44 µM (active), the EC50 [12] was < 0.1 µM (active) and the IC50 [13] was > 100 µM (inactive). For the same compound, the EC50 [14] was 0.384 µM (active), the IC50 [15] was > 100 µM (inactive) and the IC50 [16] was 3.61 µM (active). The EC50 [17] was 2.61 µM (active), the IC50 [18] was > 100 µM (inactive) and the EC50 [19] was 0.121 µM (active). For the same compound, the EC50 [20] was 0.482 µM (active), the IC50 [21] was > 100 µM (inactive) and the IC50 [22] was 4.39 µM (active). The IC50 [23] was 2.17 µM (active).
In the case of `C/C(CC(=O)NCc1ccco1)=N\NC(=O)Cc1cccc2ccccc12`, the AC50 [24] is reported as 12.6 µM (inconclusive), the AC50 [2] is reported as “inconclusive” and the AC50 [25] is reported as 25.1 µM (inconclusive).
